Counter-ions that a name gives are not always drawn.
Tests used:
Angle of repose = assay type: physicochemical; conditions: for Angle of Repose θ: one side of the pile; for Angle of Repose φ: other side of the pile
Experimental: The angle of repose is the angle formed by the horizontal base of the surface and the edge of a cone-like pile of granules. It is calculated from the following equation: […]
The angle of repose was measured by slowly pouring approximately 1 g of sample through a funnel with a 3/16″ inner diameter of the outlet. The powder then fell 1 11/16″ to land on the surface of an overturned crystallization dish on which a pile of powder formed. A picture was taken of the pile after addition of all of the material. The angle between the dish surface and the surface of the pile was measure via a protractor on the pictures. Care was taken to replicate the same positions and fall distances in the set up between different samples.

[1] = Bulk and tap densities, Carr's Index, Hausner Ratio; assay type: physicochemical
Experimental: The powder was added to a pre-weighed 10 mL graduated cylinder through a funnel that was not in direct contact with the graduated cylinder to avoid transference of vibrations. Powder was added until a 10 mL volume was reached and then the graduated cylinder with powder was weighed. The bulk density was calculated by
[formula] The same sample in the graduated cylinder was tapped for the following sequence: 100, 150, 250, 250 taps. The volume was measured after each interval. The tapped density was calculated by
The Carr's Index was calculated according to the following equation: […]
The Hausner Ratio was calculated with the following equation: […]

[2] = Phase 1 dose escalation study, pharmacokinetics; assay type: in vivo, human; conditions: oral, patients
TRKA-SHC1 complexes = assay: TRK-SHC1 proximity ligation assay in CUTO-3 cells; assay type: cell-based, human; conditions: 100 nM, 2 hours, vs DMSO
Experimental: Cells were seeded onto glass coverslips (in a 48 well plate) or chamber slides at 25-75 k cells/well. Cells were treated with the indicated doses and times then fixed for 15 minutes by shaking at room temperature in 4% paraformaldehyde. The cells were rinsed twice in PBS, and then the Duolink® in situ PLA® kit from SigmaAldrich in mouse/rabbit (Red) was used according to the manufacturer's protocol (catalog # DUO92101). The antibody concentrations were optimized using immunofluorescence prior to PLA experiments. The FFPE tissue PLAs from mice or patients were prepared as described in histology. Additionally, samples were treated with 300 mM glycine for 15 minutes prior to the blocking step, otherwise the assay was performed according to the manufacturer's protocol. The cells were mounted using Prolong® gold anti-fade reagent (with DAPI) and cured overnight prior to imaging. […] The following antibodies were used: TRK (C17F1) and ALK (D5F3) from Cell Signaling, SHC1 from Novus, and Grb2 (610111) from BD.

[3] = Dynamic vapor sorption (DVS-1 system); assay type: physicochemical
Experimental: For the DVS measurement a sample of crystalline form (I-HS) was cycled through changing humidity conditions to determine its hygroscopicity. The sample was analyzed using a Surface Measurement System DVS-1 Dynamic Vapor Sorption System. […] Data was collected in 1 minute intervals. Nitrogen was used as the carrier gas. […] After completion of the sorption cycle, the sample was dried using the same procedure, but all the way down to 0% RH and finally taken back to the starting point of 20% RH. The weight change during the sorption/desorption cycles were plotted, allowing for the hygroscopic nature of the sample to be determined.

TRKA/B/C = assay: Target inhibition judged from unbound drug levels in Phase 1 study; assay type: in vivo, human; conditions: all dose levels
[4] = system: TEL-TRKC oncoprotein, pAKT, and pERK1/2; assay: Immunoblot of phosphorylation in MO-91 cells; assay type: cell-based, human; conditions: low doses, 2 hours
Excerpt: (§1) Briefly, cells were lysed in RIPA buffer with Halt Protease and Phosphatase Inhibitor Cocktail (Thermo Scientific) and diluted in loading buffer (LI-COR Biosciences). The membranes were scanned and analyzed using the Odyssey Imaging System and software (LI-COR). The following antibodies were used from Cell Signaling: pTRK Y490 (rabbit polyclonal, #9141), pERK1/2 XP T202/Y204 (#9101), total ERK1/2, pAKT S473 (rabbit mAb, #4060), and total AKT mouse clone D3A7 (#2920). TRK (C-14) rabbit polyclonal antibody was purchased from Santa Cruz Biotechnology. GAPDH (MAB374) and pTYR (4G10) are from Millipore.

[5] = Phase 1 dose escalation study, safety; conditions: for dose limiting toxicity: one patient
Experimental: In patients with measurable disease, efficacy is assessed per RECIST 1.1 criteria.
Response is measured by RECIST Criteria, version 1.1. Serum is collected for pharmacokinetic analysis on Cycle 1 Day 1 and Day 8. Safety information is collected on all patients and the definition of dose-limiting toxicity applies to adverse events regardless of relationship to investigational product.

[6] = system: HCC78 cells expressing SLC34A2-ROS1 fusion protein; conditions: HCC78 cell line
Experimental: (§3) All proliferation assays were performed in media supplemented with 5% FBS as previously described using Cell Titer 96 MTS (Promega) (Bouhana et al., EORTC-NCI-AACR 26th Symposium on Molecular Targets and Cancer Therapeutics, Barcelona, Spain 2014). Cells were seeded 500-2000 cells/well and treated for 72 hours at the drug concentrations described on each graph. Each assay was performed in triplicate in at least 3 independent biological replicates. Data were plotted and IC50 values calculated using GraphPad software.

[7] = Dynamic vapor sorption / humidity exposure (IGAsorp, 25° C.); assay type: physicochemical; conditions: for hygroscopicity: DVS, hydrogen sulfate
Experimental: • 1. The hygroscopicity was studied at 25° C. using an IGAsorp analyzer. • 2. About 15 mg of sample was placed in a tared mesh sample holder at an initial ambient room humidity setting of ˜35%. • 3. A total wet/dry nitrogen flow rate of 250 cc/min is used throughout the study. • 4. […] The maximum time allowed at any one humidity set point was 120 min. The sample was maintained under dry N2 after the cycle was completed. Percent weight gain was calculated based on the dry weight basis.

[8] = system: xenograph (human) tumor derived from CUTO-3F cell line; assay: Xenograft tumor growth in mice, CUTO-3F; assay type: in vivo; conditions: CUTO-3F xenograft, 60 or 200 mg/kg daily oral
Excerpt: (§2) The three different cancer cell lines, the CUTO-3F cell line, the KM12 cell line, and the MO-91 cell line, each express a different Trk gene fusion. […] Following implantation of one of these three different xenograph (human) tumors in mice, the change in the volume of each tumor was monitored.

[9] = system: TPM3-TRKA, pAKT, and pERK1/2; assay: Immunoblot of phosphorylation in KM12 cells; assay type: cell-based, human; conditions: low doses, 2 hours
Excerpt: as §1

[10] = system: xenograph (human) tumor derived from KM12 cell line; assay: Xenograft tumor growth in mice, KM12; assay type: in vivo; conditions: 60 or 200 mg/kg daily oral
Excerpt: as §2

[11] = system: undifferentiated sarcoma with LMNA-NTRK1 fusion; assay: Phase 1 trial, patient with undifferentiated sarcoma (case report); assay type: in vivo, human; conditions: one patient
Excerpt: The patient started cycle 1 day 1 three days later. The patient was seen weekly for pharmacokinetic and safety analysis.

[12] = system: solid tumors with NTRK gene fusions; assay: Phase 1 study, tumor response (RECIST 1.1) in patients with NTRK fusions; assay type: in vivo, human
Experimental: Three of the 23 patients harbored NTRK-fusions and were treated at either 100 or 150 mg BID.

[13] = Accelerated stability, open vials in LDPE bag, 40° C./75% RH, five weeks; assay type: physicochemical
Experimental: Upon removal from the chamber, the samples were physically characterized by appearance, KF, TGA, DSC, XRD and PLM. The samples were also analyzed by HPLC for chromatographic purity, chiral integrity and potency. Where applicable, the data presented in the stability portion also includes the original T=0 data for comparison purposes. The data can be seen in Tables 25-29 and FIGS. 40-44.

[14] = system: MO-91 acute myeloid leukemia cells harboring ETV6-NTRK3 fusion; assay: Cell proliferation assay (Cell Titer 96 MTS), MO-91; assay type: cell-based; conditions: Homo sapiens, MO-91, 72 h, read-out: IC50, cell proliferation
Experimental: (§4) The KM12 cell line is a colorectal cancer cell line harboring the TPM3-NTRK1 fusion (Vaishnavi et al., Nature Med. 19:1469-1472, 2013). The MO-91 cell line is derived from an acute myeloid leukemia patient harboring the ETV6-NTRK3 fusion (Taipale et al., Nature Biotech. 31:630-637, 2013).
as §3

[15] = system: CUTO-3F lung adenocarcinoma cells harboring MPRIP-NTRK1 fusion; assay: Cell proliferation assay (Cell Titer 96 MTS), CUTO-3F; assay type: cell-based; conditions: Homo sapiens, 72 h, read-out: IC50, cell proliferation
Experimental: as §4, §3

[16] = system: MPRIP-TRKA oncoprotein and ERK1/2; assay: Immunoblot of phosphorylation in CUTO-3F cells; assay type: cell-based, human; conditions: low doses, 2 hours
Excerpt: as §1

[17] = system: xenograph (human) tumor derived from MO-91 cell line; assay: Xenograft tumor growth in mice, MO-91; assay type: in vivo; conditions: MO-91 xenograft, 60 or 200 mg/kg daily oral
Excerpt: as §2

[18] = Stability on aluminum slide at 40° Celsius/75% RH; assay type: physicochemical; conditions: I-HS 10 days; HCl after 1 hour; HBr after 2 weeks; mesylate overnight
[19] = system: KM12 colorectal cancer cells harboring TPM3-NTRK1 fusion; assay: Cell proliferation assay (Cell Titer 96 MTS), KM12; assay type: cell-based; conditions: Homo sapiens, KM12, 72 h, read-out: IC50, cell proliferation
Experimental: as §4, §3

[20] = 23 patients, 50 mg QD-150 mg BID

O=C(Nc1cnn2ccc(N3CCC[C@@H]3c3cc(F)ccc3F)nc12)N1CC[C@H](O)C1.O=S(=O)(O)O [AR00457470-33]
Angle of Repose Average (Angle of repose): 45.70 °
Angle of Repose θ (Angle of repose): 47.79 °
Angle of Repose φ (Angle of repose): 43.6 °
Bulk Density [1]: 423.6 mg/mL
Tapped Density [1]: 622.9 mg/mL

O=C(Nc1cnn2ccc(N3CCC[C@@H]3c3cc(F)ccc3F)nc12)N1CC[C@H](O)C1 [L-ARR10-118]
Angle of Repose Average (Angle of repose): 50.28 °
Angle of Repose θ (Angle of repose): 50.28 °
Angle of Repose φ (Angle of repose): 50.28 °
Bulk Density [1]: 594.8 mg/mL
Tapped Density [1]: 762.6 mg/mL

O=C(Nc1cnn2ccc(N3CCC[C@@H]3c3cc(F)ccc3F)nc12)N1CC[C@H](O)C1 [crystalline form (I-HS), (S)—N-(5-((R)-2-(2,5-difluorophenyl)-pyrrolidin-1-yl)-pyrazolo[1,5-a]pyrimidin-3-yl)-3-hydroxypyrrolidine-1-carboxamide hydrogen sulfate]
exposure versus dose [2]: increased in approximate proportion with dose
time to maximum plasma concentrations following dosing [2]: 30 to 60 min
TRKA-SHC1 complexes (PLA signal) (TRKA-SHC1 complexes): disruption of TRKA-SHC1 complexes
change in form during DVS (post-DVS XRPD) [3]: no change
hygroscopicity ([3]; DVS isotherm, FIG. 5): non-hygroscopic
DVS (outcome) ([3]; HCl: at 50-60% RH): RH No change
DVS weight gain ([3]; at 80% RH): ~1% gain at 80%
DVS weight gain ([3]; at 95% RH): A 2% gain at 95%
increase in mass during sorption cycle ([3]; between 0% and 90% RH): about 1.7%
inhibition of TRKA/B/C at peak concentrations (TRKA/B/C): approximately 98%
phosphorylation of TEL-TRKC, pAKT, pERK1/2 [4]: inhibition in the phosphorylation
Grade 1 and 2 anemia, frequency ([5]; 23 patients): 22%
Grade 1 and 2 dizziness, frequency ([5]; 23 patients): 26%
Grade 1 and 2 fatigue, frequency ([5]; 23 patients): 35%
MTD [5, 20]: has not been reached
tolerability [5, 20]: well tolerated
dose limiting toxicity ([5]; Dose Level 100 mg BID): delirium, grade 3 unrelated
dose limiting toxicity ([5]; Dose Level 150 mg BID): elevated AST, grade 3
adverse events attributed to drug ([5]; sarcoma patient, after four months of dosing): did not have any adverse events
drug-related adverse events ([5]; sarcoma patient, first 4-week period): No drug-related adverse events were noted
inhibition of cellular proliferation [6]: did not inhibit
hygroscopicity [7]: non-hygroscopic
hygroscopicity ([7]; listed as Crystalline form (I-HS)): not hygroscopic
mass gained in DVS ([7]; at 80% RH): 1%
tumor growth (change in volume) [8]: effectively halt the growth, or decrease the rate of growth
phosphorylation of TPM3-TRKA, pAKT, pERK1/2 [9]: inhibition of the phorphorylation
tumor growth (change in volume) [10]: effectively halt the growth, or decrease the rate of growth
response by RECIST 1.1 ([11]; 100 mg twice daily, CT before cycle 2 and cycle 3): partial response
oxygen saturation on room air ([11]; on treatment, baseline 90% with 5 L supplemental oxygen): 97%
CA125 tumor marker levels ([11]; over cycle 1): normalized
response (RECIST 1.1) in three NTRK-fusion patients ([12]; 100 or 150 mg BID): partial response
tumor decrease ([12]; c-kit-negative GIST, ETV6-NTRK3 fusion, 2 cycles+): 30%
tumor decrease ([12]; mammary analogue secretory carcinoma, ETV6-NTRK3 fusion, 2 cycles+): 64%
tumor decrease ([12]; undifferentiated sarcoma, LMNA-NTRK1 fusion, 7 cycles+): 59%
Appearance ([13]; 40° C./75% RH, 5 wks): Orange Powder
Assay (HPLC) ([13]; 40° C./75% RH, 5 wks): 79.6%
Chiral Potency (HPLC) ([13]; 40° C./75% RH, 5 wks): 99.6%
KF (water content) ([13]; 40° C./75% RH, 5 wks): 0.21 w/w %
Peak Area Percent, RRT 0.793 ([13]; 40° C./75% RH, 5 wks): 0.07
Peak Area Percent, RRT 0.863 ([13]; 40° C./75% RH, 5 wks): 0.00
Peak Area Percent, RRT 0.981 ([13]; 40° C./75% RH, 5 wks): 0.00
Peak Area Percent, RRT 1.000 ([13]; 40° C./75% RH, 5 wks): 99.93
Peak Area Percent, RRT 1.535 ([13]; 40° C./75% RH, 5 wks): 0.00
Total Impurities (HPLC) ([13]; 40° C./75% RH, 5 wks): 0.07%
change of API chemical purity ([13]; 40° C./75% RH, five weeks): did not change significantly
Appearance ([13]; time point 0 wks): Orange Powder
Assay (HPLC) ([13]; time point 0 wks): 79.4%
Chiral Potency (HPLC) ([13]; time point 0 wks): 99.6%
KF (water content) ([13]; time point 0 wks): 0.28 w/w %
Peak Area Percent, RRT 0.793 ([13]; time point 0 wks): 0.07
Peak Area Percent, RRT 0.863 ([13]; time point 0 wks): 0.00
Peak Area Percent, RRT 0.981 ([13]; time point 0 wks): 0.00
Peak Area Percent, RRT 1.000 ([13]; time point 0 wks): 99.86
Peak Area Percent, RRT 1.535 ([13]; time point 0 wks): 0.07
Total Impurities (HPLC) ([13]; time point 0 wks): 0.14%
IC50 [14]: < 0.01 µM
IC50 [15]: < 0.1 µM
phosphorylation of MPRIP-TRKA and ERK1/2 [16]: inhibition of phosphorylation
tumor growth (change in volume) [17]: effectively halt the growth, or decrease the rate of growth
Stability at 40° Celsius/75% RH (aluminum slide) [18]: No form change
IC50 [19]: < 0.01 µM

— patent publication US10799505B2, “Crystalline form of (S)-N-(5-((R)-2-(2,5-difluorophenyl)-pyrrolidin-1-yl)-pyrazolo[1,5-A]pyrimidin-3-yl)-3-hydroxypyrrolidine-1-carboxamide hydrogen sulfate” (Array BioPharma, Inc., priority 2014, dated 2020)
